Here are results for five compounds from PMC6010089, “Isothiocyanates: cholinesterase inhibiting, antioxidant, and anti-inflammatory activity” (Journal of Enzyme Inhibition and Medicinal Chemistry, 2018).

The target of test [1] is T1, COX-2 (Homo sapiens, UniProt P35354).
T1 construct: gene PTGS2
T1 sequence (P35354 18-604): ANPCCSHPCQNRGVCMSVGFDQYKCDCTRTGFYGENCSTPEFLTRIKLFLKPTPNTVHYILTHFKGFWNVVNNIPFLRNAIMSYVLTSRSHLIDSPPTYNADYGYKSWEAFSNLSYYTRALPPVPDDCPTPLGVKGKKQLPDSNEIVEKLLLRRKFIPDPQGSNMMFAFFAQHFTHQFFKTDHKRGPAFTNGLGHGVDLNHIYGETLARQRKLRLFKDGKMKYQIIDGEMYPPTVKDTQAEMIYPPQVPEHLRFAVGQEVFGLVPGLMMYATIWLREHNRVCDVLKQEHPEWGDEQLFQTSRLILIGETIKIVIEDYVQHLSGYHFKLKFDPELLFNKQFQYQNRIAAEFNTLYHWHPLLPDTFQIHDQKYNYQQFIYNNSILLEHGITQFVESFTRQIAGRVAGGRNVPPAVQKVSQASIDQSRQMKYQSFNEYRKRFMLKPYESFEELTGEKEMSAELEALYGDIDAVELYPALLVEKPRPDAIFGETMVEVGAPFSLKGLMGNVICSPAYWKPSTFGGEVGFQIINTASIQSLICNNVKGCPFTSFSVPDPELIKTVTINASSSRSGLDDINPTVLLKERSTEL
Briefly: Cayman human COX-2 inhibitor screening kit, PGF2alpha ELISA. The class given is biochemical. As to conditions: read-out: COX-2 / Inhibition (%)^b.

The target of test [2] is T1, COX-2. Kind of test: biochemical. As to conditions: read-out: COX-2 / Inhibition (%)^b. Details: COX-2 inhibitor screening kit, 10 min preincubation, arachidonic acid 2 min, PGF2alpha ELISA at 412 nm. As for the experimental part:
To analyse the inhibition of the COX-2 enzyme activity mediated by the selected ITCs, the COX-2 (human) inhibitor screening assay kit from Cayman was used. In summary, the COX-2 enzyme was incubated with the samples (having final concentration in the assay of 50 μM, in 96% ethanol) for 10 min at 37 °C and subsequently the reaction was initiated by adding arachidonic acid and incubating the mixture for 2 min at 37 °C. The background tubes correspond to inactivated COX-2 enzyme obtained after keeping the tubes containing enzymes in boiling water for 3 min along with sample solvent. Enzyme catalysis was blocked by adding saturated stannous chloride solution. Prostaglandin (PGF2α) release was quantified using ELISA at 412 nm. Indomethacin solution (having final concentration in the assay of 10 μM, in 96% ethanol) was used as a positive control.

Test [3] concerns the target T2, butyrylcholinesterase (BChE) (Equus caballus, UniProt P81908). Briefly: modified Ellman assay. The class given is biochemical. Set-up: from equine serum. Background: DTNB colorimetry detects thiols as they appear.
In test [4] the target is T3, acetylcholinesterase (AChE) (Electrophorus electricus, UniProt O42275). Briefly: biochemical. Particulars: read-out: AChE / Inhibition (%)^a.
The target in test [5] is T3, acetylcholinesterase (AChE). Briefly: modified Ellman assay. Details: electric eel, type V-S. The test is classed as biochemical.
The target in test [6] is T2, butyrylcholinesterase (BChE). Briefly: biochemical. As to conditions: read-out: BChE / Inhibition (%)^a.

Each structure is given as a SMILES string. Like-named read-outs stand apart in the source and are kept apart here.

T2 sequence (P81908 whole entry): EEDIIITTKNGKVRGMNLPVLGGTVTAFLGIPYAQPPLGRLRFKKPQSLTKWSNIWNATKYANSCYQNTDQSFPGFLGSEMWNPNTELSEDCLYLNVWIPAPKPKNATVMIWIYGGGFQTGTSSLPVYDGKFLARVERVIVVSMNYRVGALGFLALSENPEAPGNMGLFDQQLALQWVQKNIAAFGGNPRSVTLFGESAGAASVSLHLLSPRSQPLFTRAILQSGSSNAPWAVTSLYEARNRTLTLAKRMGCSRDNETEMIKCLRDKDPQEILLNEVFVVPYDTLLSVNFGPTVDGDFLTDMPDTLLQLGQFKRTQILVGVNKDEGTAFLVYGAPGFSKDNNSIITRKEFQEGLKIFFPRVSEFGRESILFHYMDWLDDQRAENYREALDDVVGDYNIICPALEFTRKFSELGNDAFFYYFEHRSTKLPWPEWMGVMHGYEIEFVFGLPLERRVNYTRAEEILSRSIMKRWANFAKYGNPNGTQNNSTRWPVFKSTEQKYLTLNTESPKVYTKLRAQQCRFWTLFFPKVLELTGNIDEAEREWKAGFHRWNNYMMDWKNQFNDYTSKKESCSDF
T3 sequence (O42275 24-633): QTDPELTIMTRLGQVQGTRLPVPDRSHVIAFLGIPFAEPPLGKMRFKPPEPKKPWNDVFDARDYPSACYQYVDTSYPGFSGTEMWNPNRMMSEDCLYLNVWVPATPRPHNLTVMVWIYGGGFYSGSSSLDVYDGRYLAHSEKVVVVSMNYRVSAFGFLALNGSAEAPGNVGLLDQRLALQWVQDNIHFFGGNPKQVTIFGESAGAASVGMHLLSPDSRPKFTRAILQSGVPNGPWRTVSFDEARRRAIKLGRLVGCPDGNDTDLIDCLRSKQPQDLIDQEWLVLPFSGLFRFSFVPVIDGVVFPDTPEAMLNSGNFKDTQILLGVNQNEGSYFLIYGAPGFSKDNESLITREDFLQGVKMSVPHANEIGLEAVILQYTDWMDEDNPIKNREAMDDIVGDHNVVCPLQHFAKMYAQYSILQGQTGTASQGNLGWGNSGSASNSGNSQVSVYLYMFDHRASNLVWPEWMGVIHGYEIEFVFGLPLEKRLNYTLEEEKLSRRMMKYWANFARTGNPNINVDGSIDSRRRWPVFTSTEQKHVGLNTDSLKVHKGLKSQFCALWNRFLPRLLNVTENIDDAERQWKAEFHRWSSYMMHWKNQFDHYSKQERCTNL

Regarding `S=C=Nc1ccccc1` [compound 1, phenyl isothiocyanate], the inhibition at 50 µM in test [1] is 98.9 ± 0.3%.

As to `Cc1ccc(N=C=S)cc1` [compound 5, 4-Methylphenyl ITC], the inhibition at 50 µM in test [2] stood at 13.6 ± 0.8%. Besides, the inhibition at 1140 µM stood at 40.7 ± 0.7% in test [3] and 58.4 ± 1.1% in test [4]. Further, the IC50 in test [5] was found to be 930 µM.

Regarding `COc1ccccc1N=C=S` [compound 7, 2-Methoxyphenyl ITC], the inhibition at 50 µM in test [1] was 99 ± 0.7%. The inhibition at 1140 µM came out at 19.5 ± 0.1% in test [6] and 57 ± 1.5% in test [4]. In addition, in test [5] (read-out: AChE / IC50), the IC50 came to 570 µM.

Regarding `COc1cccc(N=C=S)c1` [compound 8, 3-Methoxyphenyl ITC], the inhibition at 1140 µM in test [4] stood at 61.4 ± 1.6%. Further, the IC50 in test [5] (read-out: AChE / IC50) worked out at 1000 µM.

On to `CSCCCN=C=S` [compound 11, 3-(Methylsulfanyl)propyl ITC], for which the inhibition at 50 µM in test [1] came to 48 ± 0.3%. In addition, the inhibition at 1140 µM in test [6] amounted to 15.4 ± 0.3%; in test [4] it was 4.4 ± 0.7%.
